Patent US9133183B2, “Imidazolidinones and analogs exhibiting anti-cancer and anti-proliferative activities” (Deciphera Pharmaceuticals, LLC, priority 2013, dated 2015)

Target: unphosphorylated PDGFRβ kinase (uPDGFRβ, Seq. ID No. 3) (Homo sapiens (Human), UniProt P09619)
Experiment: Unphosphorylated PDGFRβ kinase assay (coupled pyruvate kinase/lactate dehydrogenase)
Format: biochemical
Conditions: enzymatic assay, ATP 500 μM
Summary of the method: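 Construct residues 557-1106, unphosphorylated, 15.7 nM, with poly E4Y 2.5 mg/mL and 500 μM ATP, Tris pH 7.5, 1% DMSO, 30 °C. ADP coupled to NADH oxidation via PK/LDH, A340 followed 4 h; rate from 1.5-2.5 h versus no-compound control, IC50 from percent-inhibition series.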

Sequence of unphosphorylated PDGFRβ kinase (uPDGFRβ, Seq. ID No. 3) (P09619 557-1106): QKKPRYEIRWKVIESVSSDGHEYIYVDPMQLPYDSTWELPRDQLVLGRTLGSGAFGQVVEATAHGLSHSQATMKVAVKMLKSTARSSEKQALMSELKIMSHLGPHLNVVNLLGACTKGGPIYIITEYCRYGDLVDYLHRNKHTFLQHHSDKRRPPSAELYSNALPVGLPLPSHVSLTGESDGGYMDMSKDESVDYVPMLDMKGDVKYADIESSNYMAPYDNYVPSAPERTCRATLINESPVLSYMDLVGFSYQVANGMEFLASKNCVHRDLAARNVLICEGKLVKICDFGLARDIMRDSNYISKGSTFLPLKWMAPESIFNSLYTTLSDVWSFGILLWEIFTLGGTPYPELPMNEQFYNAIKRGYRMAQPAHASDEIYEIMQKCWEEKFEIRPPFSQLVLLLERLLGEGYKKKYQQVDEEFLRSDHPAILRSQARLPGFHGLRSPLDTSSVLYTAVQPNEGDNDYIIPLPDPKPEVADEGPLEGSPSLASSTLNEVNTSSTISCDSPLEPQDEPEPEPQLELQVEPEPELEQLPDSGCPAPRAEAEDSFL

| SMILES | IC50 |
| --- | --- |
| Cn1cc(-c2cc(Oc3ccc(NC(=O)N4CCN(C5CCOC5)C4=O)nc3)ccn2)cn1 (stereo in doubt) [Example 12, (S)—N-(5-((2-(1-methyl-1H-pyrazol-4-yl)pyridin-4-yl)oxy)pyridin-2-yl)-2-oxo-3-(tetrahydrofuran-3-yl)imidazolidine-1-carboxamide] | > 1000 nM |
| Cc1nc(NC(=O)N2CCN(C3CCOCC3)C2=O)ccc1Oc1ccnc(-c2cnn(C)c2)c1 [Example 3, N-(6-methyl-5-((2-(1-methyl-1H-pyrazol-4-yl)pyridin-4-yl)oxy)pyridin-2-yl)-2-oxo-3-(tetrahydro-2H-pyran-4-yl)imidazolidine-1-carboxamide] | > 1000 nM |
| CCn1cc(-c2cc(Oc3ccc(NC(=O)N4CCN(C5CCOCC5)C4=O)nc3)ccn2)cn1 [Example 4, N-(5-((2-(1-ethyl-1H-pyrazol-4-yl)pyridin-4-yl)oxy)pyridin-2-yl)-2-oxo-3-(tetrahydro-2H-pyran-4-yl)imidazolidine-1-carboxamide] | 100 to 1000 nM |
| Cc1cc(-c2cc(Oc3ccc(NC(=O)N4CCN(C5CCOCC5)C4=O)nc3)ccn2)on1 [Example 7, N-(5-((2-(3-methylisoxazol-5-yl)pyridin-4-yl)oxy)pyridin-2-yl)-2-oxo-3-(tetrahydro-2H-pyran-4-yl)imidazolidine-1-carboxamide] | > 1000 nM |
| COCCN1CCN(C(=O)Nc2ccc(Oc3ccnc(-c4cnn(C)c4)c3)cn2)C1=O [Example 10, 3-(2-methoxyethyl)-N-(5-((2-(1-methyl-11H-pyrazol-4-yl)pyridin-4-yl)oxy)pyridin-2-yl)-2-oxoimidazolidine-1-carboxamide] | > 1000 nM |
| COCCCN1CCN(C(=O)Nc2ccc(Oc3ccnc(-c4cnn(C)c4)c3)cn2)C1=O [Example 11, 3-(3-methoxypropyl)-N-(5-((2-(1-methyl-1H-pyrazol-4-yl)pyridin-4-yl)oxy)pyridin-2-yl)-2-oxoimidazolidine-1-carboxamide] | > 1000 nM |
| COC[C@H](C)N1CCN(C(=O)Nc2ccc(Oc3ccnc(-c4cnn(C)c4)c3)cn2)C1=O [Example 16, (S)-3-(1-methoxypropan-2-yl)-N-(5-((2-(1-methyl-11H-pyrazol-4-yl)pyridin-4-yl)oxy)pyridin-2-yl)-2-oxoimidazolidine-1-carboxamide] | 100 to 1000 nM |
| COCCCN1CCN(C(=O)Nc2ccc(Oc3ccnc(-c4cnn(C)c4)c3)c(C)n2)C1=O [Example 19, 3-(3-methoxypropyl)-N-(6-methyl-5-((2-(1-methyl-1H-pyrazol-4-yl)pyridin-4-yl)oxy)pyridin-2-yl)-2-oxoimidazolidine-1-carboxamide] | > 1000 nM |
| Cc1nc(NC(=O)N2CCN(C3COC3)C2=O)ccc1Oc1ccnc(-c2cnn(C)c2)c1 [Example 20, N-(6-methyl-5-((2-(1-methyl-1H-pyrazol-4-yl)pyridin-4-yl)oxy)pyridin-2-yl)-3-(oxetan-3-yl)-2-oxoimidazolidine-1-carboxamide] | > 1000 nM |
| Cn1cc(-c2cc(Oc3ccc(NC(=O)N4CCN(CCOC(F)(F)F)C4=O)nc3)ccn2)cn1 [Example 21, N-(5-((2-(1-methyl-1H-pyrazol-4-yl)pyridin-4-yl)oxy)pyridin-2-yl)-2-oxo-3-(2-(trifluoromethoxy)ethyl)imidazolidine-1-carboxamide] | > 1000 nM |
| Cc1nc(NC(=O)N2CCN(C3CCCCC3)C2=O)ccc1Oc1ccnc(-c2cnn(C)c2)c1 [Example 22, 3-cyclohexyl-N-(6-methyl-5-((2-(1-methyl-1H-pyrazol-4-yl)pyridin-4-yl)oxy)pyridin-2-yl)-2-oxoimidazolidine-1-carboxamide] | > 1000 nM |
| Cn1cc(-c2cc(Oc3ccc(NC(=O)N4CCN(C5CCC(F)(F)CC5)C4=O)nc3)ccn2)cn1 [Example 25, 3-(4,4-difluorocyclohexyl)-N-(5-((2-(1-methyl-1H-pyrazol-4-yl)pyridin-4-yl)oxy)pyridin-2-yl)-2-oxoimidazolidine-1-carboxamide] | 10 to 100 nM |
